The results in this text go back to patent US9850227B2 (YUHAN CORPORATION, priority 2011, dated 2017).

The target in this experiment is T1, human 5-HT4(a) (Homo sapiens, UniProt Q13639).
T1 construct: host or cells: GeneBIAzer HTR4-CRE-bla CHO-K1 cells
The experiment is described as follows: Evaluation of agonistic activity in CHO-K1 cells expressing human 5-HT4(a) (GeneBIAzer HTR4-CRE-bla CHO-K1 cells, beta-lactamase fluorescence ratio, EC50 from 8 concentrations). In kind it is cell-based. The method, boiled down:
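HTR4-CRE-bla CHO-K1 cells (10^4 per well, overnight in 1% FBS medium) exposed to compound for 5 h, then beta-lactamase substrate 2 h in the dark. Fluorescence ratio at 465/535 nm after 410 nm excitation; EC50 by non-linear regression over 8 concentrations.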

Structures can show the parent of a compound that is named as a salt.

T1 sequence (Q13639 1-387 isoform Q13639-2): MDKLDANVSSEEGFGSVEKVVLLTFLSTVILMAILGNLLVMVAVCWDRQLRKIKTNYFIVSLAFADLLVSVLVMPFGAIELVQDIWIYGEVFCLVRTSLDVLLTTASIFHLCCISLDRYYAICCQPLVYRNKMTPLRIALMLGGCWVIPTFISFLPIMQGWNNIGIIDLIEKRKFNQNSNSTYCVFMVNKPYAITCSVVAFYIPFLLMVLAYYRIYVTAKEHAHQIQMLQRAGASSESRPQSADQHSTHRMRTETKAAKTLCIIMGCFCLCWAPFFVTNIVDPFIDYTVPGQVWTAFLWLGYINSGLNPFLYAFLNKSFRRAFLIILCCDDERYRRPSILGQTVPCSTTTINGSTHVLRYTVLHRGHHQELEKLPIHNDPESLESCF

On to `CCCc1cc(N2CCC[C@@H](NCC3CC3)C2)nc(Nc2ccc(C)c(C#N)c2)n1` [Example 267, (R)-5-{4-[3-(cyclopropylmethylamino)piperidin-1-yl]-6-propylpyrimidin-2-ylamino}-2-methylbenzonitrile], for which the EC50 came to 0.088 nM.
In the case of `CCCc1cc(N2CCCCC2CCO)nc(Nc2ccc(F)c(C#N)c2)n1` (stereo not drawn) [Example 178, 2-fluoro-5-{4-[2-(2-hydroxyethyl)piperidin-1-yl]-6-propylpyrimidin-2-ylamino}benzonitrile], the EC50 came out at 0.082 nM.
For `CCCc1cc(N2CCCCC2CCO)nc(Nc2ccc3c(C)cc(=O)oc3c2)n1` (stereo not drawn) [Example 146, 7-{4-[2-(2-hydroxyethyl)piperidin-1-yl]-6-propylpyrimidin-2-ylamino}-4-methyl-2H-chromen-2-one], the half-maximal effective concentration (EC50) was found to be 0.27 nM.
As to `CCCc1cc(N2CCC[C@@H](NCC(C)(C)C)C2)nc(Nc2ccc(C)c(C#N)c2)n1` [Example 211, (R)-2-methyl-5-{4-[3-(neopentylamino)piperidin-1-yl]-6-propylpyrimidin-2-ylamino}benzonitrile], the EC50 was 0.023 nM.
The same measure for `CCCCc1cc(N2CCC[C@@H](N)C2)nc(Nc2cc(N)cc(C#N)c2)n1` [Example 342, (R)-3-amino-5-{[4-(3-aminopiperidin-1-yl)-6-butylpyrimidin-2-yl]amino}benzonitrile]: 0.0041 nM; for `CCCc1cc(N2CCNC[C@H]2C)nc(Nc2ccc(F)c([N+](=O)[O-])c2)n1` [Example 121, (R)-N-(4-fluoro-3-nitrophenyl)-4-(2-methylpiperazin-1-yl)-6-propylpyrimidin-2-amine]: 0.093 nM; for `CCCc1cc(N2CCCCC2CCO)nc(Nc2ccc(Cl)c([N+](=O)[O-])c2)n1` (stereo not drawn) [Example 24, 2-{1-[2-(4-chloro-3-nitrophenylamino)-6-propylpyrimidin-4-yl]piperidin-2-yl}ethanol]: 0.026 nM.
`CCCCc1cc(N2CCC[C@@H](NC(C)=O)C2)nc(Nc2ccc(N)c(C(F)(F)F)c2)n1` [Example 238, (R)—N-{1-[2-(4-amino-3-trifluoromethylphenylamino)-6-butylpyrimidin-4-yl]piperidin-3-yl}acetamide]: the 50% effective concentration (EC50) was determined as 0.0083 nM.
In the case of `CCCc1cc(N2CCNC[C@H]2C)nc(Nc2cccc([N+](=O)[O-])c2)n1` [Example 120] it was 0.073 nM; in that of `CCCN[C@@H]1CCCN(c2cc(CCC)nc(Nc3ccc(C)c(C#N)c3)n2)C1` [Example 206, (R)-5-{4-[3-(propylamino)piperidin-1-yl]-6-propylpyrimidin-2-ylamino}-2-methylbenzonitrile], 0.0087 nM.
In the case of `CCCc1cc(N2CCC[C@@H](NCc3ccc(O)cc3)C2)nc(Nc2ccc(C)c(C#N)c2)n1` [Example 219, (R)-5-{4-[3-(4-hydroxybenzylamino)piperidin-1-yl]-6-propylpyrimidin-2-ylamino}-2-methylbenzonitrile], the EC50 was 0.01 nM.
Take `CCCc1cc(N2CCC[C@@H](NC)C2)nc(Nc2ccc(C)c(F)c2)n1` [Example 323, (R)—N-(3-fluoro-4-methylphenyl)-4-[3-(methylamino)piperidin-1-yl]-6-propylpyrimidin-2-amine]: the EC50 is 0.416 nM.
In the case of `CCCc1cc(N2CCNC[C@H]2C)nc(Nc2ccc(C)c([N+](=O)[O-])c2)n1` [Example 122, (R)-N-(4-methyl-3-nitrophenyl)-4-(2-methylpiperazin-1-yl)-6-propylpyrimidin-2-amine], the EC50 came out at 0.011 nM.
In the case of `CCCc1cc(N2CCOCC2)nc(Nc2cccc([N+](=O)[O-])c2)n1` [Example 83, 4-morpholino-N-(3-nitrophenyl)-6-propylpyrimidin-2-amine hydrochloride] it was 0.36 nM; in that of `CCCc1cc(N2CCC[C@@H](NCC3CC3)C2)nc(Nc2cccc(C#N)c2)n1` [Example 224, (R)-3-{4-[3-(cyclopropylmethylamino)piperidin-1-yl]-6-propylpyrimidin-2-ylamino}benzonitrile], 0.07 nM; in that of `CCCc1cc(N2CCCCC2CCO)nc(Nc2cccc(OC)c2)n1` (stereo not drawn) [Example 138, 2-{1-[2-(3-methoxyphenylamino)-6-propylpyrimidin-4-yl]piperidin-2-yl}ethanol], 0.46 nM.
In the case of `CCCc1cc(N2CCC[C@@H](NC(=O)CO)C2)nc(Nc2ccc(C)c(Cl)c2)n1` [Example 253, (R)—N-{1-[2-(3-chloro-4-methylphenylamino)-6-propylpyrimidin-4-yl]piperidin-3-yl}-2-hydroxyacetamide], the EC50 was found to be 0.057 nM.
Take `CCCc1cc(N2CCC[C@@H](NC)C2)nc(Nc2ccc(F)c(N)c2)n1` [Example 306, (R)-4-fluoro-N^1-{4-[3-(methylamino)piperidin-1-yl]-6-propylpyrimidin-2-yl}benzene-1,3-diamine]: the EC50 amounted to 0.015 nM.
For `CCCc1cc(N2CCC[C@@H](NCC)C2)nc(Nc2cc(N)cc(C#N)c2)n1` [Example 292, (R)-3-amino-5-[4-(3-ethylaminopiperidin-1-yl)-6-propylpyrimidin-2-ylamino]benzonitrile], the EC50 came out at 0.019 nM.
Consider `CCCc1cc(N2CCC[C@@H](NCC3CCCC3)C2)nc(Nc2ccc(C)c(C#N)c2)n1` [Example 218, (R)-5-{4-[3-(cyclopentylmethylamino)piperidin-1-yl]-6-propylpyrimidin-2-ylamino}-2-methylbenzonitrile], for which the EC50 amounted to 0.016 nM.
The same measure for `CCCc1cc(N2CCC[C@H](NCC(C)(C)C)C2)nc(Nc2ccc(C)c(C#N)c2)n1` [Example 158, (S)-2-methyl-5-{4-[3-(neopentylamino)piperidin-1-yl]-6-propylpyrimidin-2-ylamino}benzonitrile]: 0.054 nM; for `CCCc1cc(N2CCOCC2)nc(Nc2ccc(F)c([N+](=O)[O-])c2)n1` [Example 84, N-(4-fluoro-3-nitrophenyl)-4-morpholino-6-propylpyrimidin-2-amine hydrochloride]: 0.27 nM.
With `CCCCc1cc(N2CCC[C@@H](NCC(C)C)C2)nc(Nc2ccc(C)c(C#N)c2)n1` [Example 302, (R)-5-({4-butyl-6-[3-(isobutylamino)piperidin-1-yl]pyrimidin-2-yl}amino)-2-methylbenzonitrile], the EC50 amounted to 0.019 nM.
`CCCCc1cc(N2CCC[C@@H](N)C2)nc(Nc2ccc(C)c([N+](=O)[O-])c2)n1` [Example 339, (R)-4-(3-aminopiperidin-1-yl)-6-butyl-N-(4-methyl-3-nitrophenyl)pyrimidin-2-amine]: the EC50 was found to be 0.017 nM.
For the molecule `CCCCc1cc(N2CCC[C@@H](NC)C2)nc(Nc2ccc(C)c(C(F)(F)F)c2)n1` [Example 332, (R)-4-butyl-N-[4-methyl-3-(trifluoromethyl)phenyl]-6-[3-(methylamino)piperidin-1-yl]pyrimidin-2-amine], the EC50 turned out to be 0.017 nM.
As to `CCCc1cc(N2CCC[C@@H](N)C2)nc(Nc2ccc(N)c(C(F)(F)F)c2)n1` [Example 257, (R)—N^1-[4-(3-aminopiperidin-1-yl)-6-propylpyrimidin-2-yl]-3-(trifluoromethyl)benzene-1,4-diamine], the EC50 is 0.042 nM.
On to `CCCCc1cc(N2CCC[C@@H](NC(C)=O)C2)nc(Nc2ccc(Cl)c([N+](=O)[O-])c2)n1` [Example 235, (R)—N-{1-[6-butyl-2-(4-chloro-3-nitrophenylamino)pyrimidin-4-yl]piperidin-3-yl}acetamide], for which the EC50 turned out to be 0.012 nM.
As to `CCCc1cc(N2CCCCC2CCO)nc(Nc2ccc(N)c(C#N)c2)n1` (stereo not drawn) [Example 179, 2-amino-5-{4-[2-(2-hydroxyethyl)piperidin-1-yl]-6-propylpyrimidin-2-ylamino}benzonitrile], the EC50 came to 0.027 nM.
As for `CCCCc1cc(N2CCC[C@@H](NC)C2)nc(Nc2ccc(F)c(C#N)c2)n1` [Example 312, (R)-5-({4-butyl-6-[3-(methylamino)piperidin-1-yl]pyrimidin-2-yl}amino)-2-fluorobenzonitrile], the concentration for a half-maximal effect (EC50) was determined as 0.014 nM.
Take `CCCc1cc(N2CCC[C@@H](NC(C)=O)C2)nc(Nc2ccc(F)c(C(F)(F)F)c2)n1` [Example 277, (R)—N-{1-[2-(4-fluoro-3-trifluoromethylphenylamino)-6-propylpyrimidin-4-yl]piperidin-3-yl}acetamide]: the EC50 amounted to 0.014 nM.
For `CCCc1cc(N2CCCCC2CCO)nc(Nc2cccc(C#N)c2)n1` (stereo not drawn) [Example 131, 3-{4-[2-(2-hydroxyethyl)piperidin-1-yl]-6-propylpyrimidin-2-ylamino}benzonitrile], the EC50 was 0.12 nM.
Turning to `CCCc1cc(N2CCC[C@@H](NC(=O)CO)C2)nc(Nc2ccc(C)c(N)c2)n1` [Example 252, (R)—N-{1-[2-(3-amino-4-methylphenylamino)-6-propylpyrimidin-4-yl]piperidin-3-yl}-2-hydroxyacetamide], the EC50 is 0.094 nM.
In the case of `CCCc1cc(N2CCC[C@@H](NC(=O)CO)C2)nc(Nc2ccc(C)c(C#N)c2)n1` [Example 244, (R)—N-{1-[2-(3-cyano-4-methylphenylamino)-6-propylpyrimidin-4-yl]piperidin-3-yl}-2-hydroxyacetamide], the EC50 came to 0.02 nM.
For the molecule `CCCc1cc(N2CCC[C@@H](NC(=O)CO)C2)nc(Nc2ccc(C)c(C(F)(F)F)c2)n1` [Example 254, (R)-2-hydroxy-N-(1-{2-[4-methyl-3-(trifluoromethyl)phenylamino]-6-propylpyrimidin-4-yl}piperidin-3-yl)acetamide], the EC50 worked out at 0.038 nM.
The same measure for `CCCc1cc(N2CCC[C@H](NCc3cc(C)c(C)o3)C2)nc(Nc2ccc(C)c(C#N)c2)n1` [Example 161, (S)-5-(4-{3-[(4,5-dimethylfuran-2-ylmethyl)amino]piperidin-1-yl}-6-propylpyrimidin-2-ylamino)-2-methylbenzonitrile]: 0.148 nM; for `CCCCc1cc(N2CCC[C@@H](NC)C2)nc(Nc2cc(N)cc(C(F)(F)F)c2)n1` [Example 313, (R)—N^1-{4-butyl-6-[3-(methylamino)piperidin-1-yl]pyrimidin-2-yl}-5-(trifluoromethyl)benzene-1,3-diamine]: 0.005 nM.
